From PubChem BioAssay AID2060332 (Molecular Pharmacology Branch, DTP, NCI, 2025)
pIC50: −log10 of the molar value. Where “and” joins values, the source holds several entries; their conditions need not be identical. Equal entries are not always repeated. Each block holds one compound with its values, some of them ahead of it.

Test system: LG0567-F671-PDC multi-cell spheroid viability
Assay: Anticancer human tumor LG0567-F671-PDC patient-derived lung adenocarcinoma cell line growth inhibition [IpAb]
Settings: for viability, T/C: stronger effect = lower value
Method in brief: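 Multi-cell spheroids of 60% tumour cells, 25% HUVEC and 15% MSC in ultra-low-attachment U-bottom wells, treated with agents combined with ipatasertib or abemaciclib. Half-log ranges top out near clinical Cmax, or 10 microM when Cmax is unknown.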

[1] = curve of first compound, second compound 0.1 µM
[2] = curve of first compound, second compound 0.316 µM
[3] = curve of first compound, second compound 1 µM
[4] = second compound 0.1 µM, first compound 0.00316 µM
[5] = second compound 0.1 µM, first compound 0.01 µM
[6] = second compound 0.1 µM, first compound 0.0316 µM
[7] = second compound 0.1 µM, first compound 0.1 µM
[8] = second compound 0.316 µM, first compound 0.00316 µM
[9] = second compound 0.316 µM, first compound 0.01 µM
[10] = second compound 0.316 µM, first compound 0.0316 µM
[11] = second compound 0.316 µM, first compound 0.1 µM
[12] = second compound 1 µM, first compound 0.00316 µM
[13] = second compound 1 µM, first compound 0.01 µM
[14] = second compound 1 µM, first compound 0.0316 µM
[15] = second compound 1 µM, first compound 0.1 µM
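Further: viability read after 7 days of drug exposure.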
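Wherever viability, T/C is given: 100% = DMSO vehicle control luminescence.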

Structure (SMILES): COc1c(OCCCN2CCOCC2)ccc2c3n(c(=NC(=O)c4cnc(N)nc4)nc12)CCN3 + CC(C)NCC(C(=O)N1CCN(c2ncnc3c2C(C)CC3O)CC1)c1ccc(Cl)cc1
pIC50 [1]: 7.27 | pIC50 [2]: 7.36 | pIC50 [3]: 7.93 | pIC50 (curve of first compound, second compound 3.16 µM): 7.65 | pIC50 (curve of first compound, second compound 10 µM): 8.20 | viability, T/C [4]: 99.6% | viability, T/C [5]: 85.8% | viability, T/C [6]: 54.7% | viability, T/C [7]: 44% | viability, T/C (second compound 0.1 µM, first compound 0.316 µM): 32.2% | viability, T/C (second compound 0.1 µM, first compound 1 µM): 29.4% | viability, T/C [8]: 82.8% | viability, T/C [9]: 75.8% | viability, T/C [10]: 47.4% | viability, T/C [11]: 42.6% | viability, T/C (second compound 0.316 µM, first compound 0.316 µM): 28.5% | viability, T/C (second compound 0.316 µM, first compound 1 µM): 19.9% | viability, T/C [12]: 72.7% | viability, T/C [13]: 49.8% | viability, T/C [14]: 41% | viability, T/C [15]: 30% | viability, T/C (second compound 1 µM, first compound 0.316 µM): 30.5% | viability, T/C (second compound 1 µM, first compound 1 µM): 22.6% | viability, T/C (second compound 3.16 µM, first compound 0.00316 µM): 71.4% | viability, T/C (second compound 3.16 µM, first compound 0.01 µM): 58.5% | viability, T/C (second compound 3.16 µM, first compound 0.0316 µM): 46.5% | viability, T/C (second compound 3.16 µM, first compound 0.1 µM): 34.5% | viability, T/C (second compound 3.16 µM, first compound 0.316 µM): 26.7% | viability, T/C (second compound 3.16 µM, first compound 1 µM): 18.4% | viability, T/C (second compound 10 µM, first compound 0.00316 µM): 57.3% | viability, T/C (second compound 10 µM, first compound 0.01 µM): 42.2% | viability, T/C (second compound 10 µM, first compound 0.0316 µM): 39% | viability, T/C (second compound 10 µM, first compound 0.1 µM): 30.9% | viability, T/C (second compound 10 µM, first compound 0.316 µM): 18.9% | viability, T/C (second compound 10 µM, first compound 1 µM): 18.8%

Structure (SMILES): CC(C)n1nc(-c2ccc3oc(N)nc3c2)c2c(N)ncnc21 + CCN1CCN(Cc2ccc(Nc3ncc(F)c(-c4cc(F)c5nc(C)n(C(C)C)c5c4)n3)nc2)CC1
pIC50 (curve of first compound, second compound 0.01 µM): 7.52 | pIC50 (curve of first compound, second compound 0.0316 µM): 7.94 | pIC50 [1]: 7.87 | pIC50 [2]: 8.16 | pIC50 [3]: 8.18 | viability, T/C (second compound 0.01 µM, first compound 0.000316 µM): 111% | viability, T/C (second compound 0.01 µM, first compound 0.001 µM): 88.4% | viability, T/C (second compound 0.01 µM, first compound 0.00316 µM): 65.4% | viability, T/C (second compound 0.01 µM, first compound 0.01 µM): 70.2% | viability, T/C (second compound 0.01 µM, first compound 0.0316 µM): 50% | viability, T/C (second compound 0.01 µM, first compound 0.1 µM): 38.6% | viability, T/C (second compound 0.0316 µM, first compound 0.000316 µM): 86.8% | viability, T/C (second compound 0.0316 µM, first compound 0.001 µM): 80.8% | viability, T/C (second compound 0.0316 µM, first compound 0.00316 µM): 73.8% | viability, T/C (second compound 0.0316 µM, first compound 0.01 µM): 52.9% | viability, T/C (second compound 0.0316 µM, first compound 0.0316 µM): 34.9% | viability, T/C (second compound 0.0316 µM, first compound 0.1 µM): 35% | viability, T/C (second compound 0.1 µM, first compound 0.000316 µM): 65.5% | viability, T/C (second compound 0.1 µM, first compound 0.001 µM): 70.2% | viability, T/C [4]: 47.8% | viability, T/C [5]: 55.6% | viability, T/C [6]: 46.7% | viability, T/C [7]: 29.1% | viability, T/C (second compound 0.316 µM, first compound 0.000316 µM): 66.4% | viability, T/C (second compound 0.316 µM, first compound 0.001 µM): 53.2% | viability, T/C [8]: 69.8% | viability, T/C [9]: 38.5% | viability, T/C [10]: 39.6% | viability, T/C [11]: 36.8% | viability, T/C (second compound 1 µM, first compound 0.000316 µM): 57.1% | viability, T/C (second compound 1 µM, first compound 0.001 µM): 61.7% | viability, T/C [12]: 56.3% | viability, T/C [13]: 40.9% | viability, T/C [14]: 43.6% | viability, T/C [15]: 27.9%

Structure (SMILES): Cn1ncnc1[C@H]1c2n[nH]c(=O)c3cc(F)cc(c23)N[C@@H]1c1ccc(F)cc1
viability, T/C (compound 0.000316 µM): 113% and 103% | viability, T/C (compound 0.001 µM): 89.9% and 84.2% | viability, T/C (compound 0.00316 µM): 96.3% and 81.5% | viability, T/C (compound 0.01 µM): 69.8% and 66% | viability, T/C (compound 0.0316 µM): 42.7% and 73.8% | viability, T/C (compound 0.1 µM): 65.2% and 30.4% | pIC50 (curve of compound): < 7.00 and 7.31

Structure (SMILES): C=CCn1c(=O)c2cnc(Nc3ccc(N4CCN(C)CC4)cc3)nc2n1-c1cccc(C(C)(C)O)n1
viability, T/C (compound 0.0316 µM): 101% and 104% | viability, T/C (compound 0.1 µM): 76.4% and 73.2% | viability, T/C (compound 0.316 µM): 46.1% and 54.2% | viability, T/C (compound 1 µM): 45.3% and 54% | viability, T/C (compound 3.16 µM): 37.1% and 57.6% | viability, T/C (compound 10 µM): 30.6% and 41.5%

More lines, main results first:

pIC50 (compound alone, run of 06/01/2021): < 6.00
Structure (SMILES): CCN1CCN(Cc2ccc(Nc3ncc(F)c(-c4cc(F)c5nc(C)n(C(C)C)c5c4)n3)nc2)CC1

pIC50 (curve of compound): > 7.50
Structure (SMILES): C=CC(=O)N1CCN(c2nc(=O)n(-c3c(C)ccnc3C(C)C)c3nc(-c4c(O)cccc4F)c(F)cc23)C(C)C1 (stereo not drawn)
viability, T/C (compound 0.0316 µM): 26.6% and 19.1% | viability, T/C (compound 0.1 µM): 18.9% and 20.1% | viability, T/C (compound 0.316 µM): 19.7% and 18.1% | viability, T/C (compound 1 µM): 18.6% and 17.6% | viability, T/C (compound 3.16 µM): 16% and 20.2% | viability, T/C (compound 10 µM): 20.3% and 18.5%

pIC50 (curve of compound): 7.12 and 7.16
Structure (SMILES): COc1c(OCCCN2CCOCC2)ccc2c3n(c(=NC(=O)c4cnc(N)nc4)nc12)CCN3
viability, T/C (compound 0.00316 µM): 102% | viability, T/C (compound 0.01 µM): 75.8% and 88.7% | viability, T/C (compound 0.0316 µM): 59.6% and 64.5% | viability, T/C (compound 0.1 µM): 48.8% and 42.4% | viability, T/C (compound 0.316 µM): 35.9% and 36.7% | viability, T/C (compound 1 µM): 33.4% and 31.1%
